# Assay results reported in patent US12208088B2 (Genentech, Inc., priority 2018, dated 2025).
# Target: HPK1 (Homo sapiens (Human), UniProt Q92918)
# Experiment: HPK1 Lantha binding assay ("Lanth")
# Conditions: binding assays; Morrison Ki fit
# How it was run: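 TR-FRET binding competition using 2 nM HPK1, 2 nM Eu-anti-GST antibody and 15 nM Tracer222 at 23 °C. Compound was incubated 1 h with enzyme and antibody, then 1 h after tracer addition, with an 11-point 5-fold dilution series. Ki obtained from a Morrison fit that corrects for tracer concentration and Kd.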
# Sequence of HPK1 (Q92918 1-346 limits assumed): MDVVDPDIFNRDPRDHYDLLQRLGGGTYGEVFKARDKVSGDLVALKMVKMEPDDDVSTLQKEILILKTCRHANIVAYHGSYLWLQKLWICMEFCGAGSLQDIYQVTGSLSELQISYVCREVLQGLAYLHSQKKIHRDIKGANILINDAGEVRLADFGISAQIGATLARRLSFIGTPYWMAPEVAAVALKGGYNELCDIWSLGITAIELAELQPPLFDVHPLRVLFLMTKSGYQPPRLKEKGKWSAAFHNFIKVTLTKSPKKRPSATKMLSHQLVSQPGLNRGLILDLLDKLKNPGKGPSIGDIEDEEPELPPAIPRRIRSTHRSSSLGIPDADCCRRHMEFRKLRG
row,SMILES,Ki [µM]
1,"CN(C)C(=O)c1ccc(-c2cnc3c(c2Cl)C2(CC=CC2)CN3)c(F)c1 [Compound 206, 4-(4′-Chloro-1′,2′-dihydrospiro[cyclopentane-1,3′-pyrrolo[2,3-b]pyridin]-3-en-5′-yl)-3-fluoro-N,N-dimethylbenzamide]",0.436
2,O=C(c1cccc(-c2cnc3c(c2Cl)C2(CC2)CN3)c1F)N1CC(O)C1 [Compound 49],0.0553
3,"CN(C)C(=O)c1c(N)ccc(-c2cnc3c(c2)C2(CCC2)CN3)c1F [Compound 66, 6-Amino-3-(1′,2′-dihydrospiro[cyclobutane-1,3′-pyrrolo[2,3-b]pyridin]-5′-yl)-2-fluoro-N,N-dimethylbenzamide]",0.0531
4,"N#Cc1cc2c(-c3cnc4c(c3)C3(CC3)CN4)c[nH]c2cn1 [Compound 56, 3-(1′,2′-Dihydrospiro[cyclopropane-1,3′-pyrrolo[2,3-b]pyridin]-5′-yl)-1H-pyrrolo[2,3-c]pyridine-5-carbonitrile]",0.0353
5,"Clc1c(-c2ccc(-n3cccn3)cc2)cnc2c1C1(CC=CC1)CN2 [Compound 215, 5′-(4-(1H-Pyrazol-1-yl)phenyl)-4′-chloro-1′,2′-dihydrospiro[cyclopentane-1,3′-pyrrolo[2,3-b]pyridin]-3-ene]",0.676
6,"CN(C)C(=O)c1c(N)ccc(-c2cnc3c(c2Cl)C2(CCCC2)CN3)c1F [Compound 27, 6-Amino-3-(4′-chloro-1′,2′-dihydrospiro[cyclopentane-1,3′-pyrrolo[2,3-b]pyridin]-5′-yl)-2-fluoro-N,N-dimethylbenzamide]",0.00671
7,"Clc1c(-c2ccc3[nH]ccc3c2)cnc2c1C1(CC=CC1)CN2 [Compound 287, 4-Chloro-5′-(1H-indol-5-yl)-1′,2′-dihydrospiro[cyclopentane-1,3′-pyrrolo[2,3-b]pyridin]-3-ene]",0.638
8,"CC1CN(C(=O)c2cccc(-c3cnc4c(c3)C3(CC3)CN4)c2F)C1 [Compound 142, (3-(1′,2′-dihydrospiro[cyclopropane-1,3′-pyrrolo[2,3-b]pyridin]-5′-yl)-2-fluorophenyl)(3-methylazetidin-1-yl)methanone]",0.116
9,"CN(C(=O)c1cccc(-c2cnc3c(c2)C2(CC2)CN3)c1F)c1cnn(C)c1 [Compound 141, 3-(1′,2′-dihydrospiro[cyclopropane-1,3′-pyrrolo[2,3-b]pyridin]-5′-yl)-2-fluoro-N-methyl-N-(1-methyl-1H-pyrazol-4-yl)benzamide]",0.126
10,"O=C(c1cccc(-c2cnc3c(c2)C2(CC2)CN3)c1F)N1CCc2ccccc21 [Compound 172, (3-(1′,2′-dihydrospiro[cyclopropane-1,3′-pyrrolo[2,3-b]pyridin]-5′-yl)-2-fluorophenyl)(indolin-1-yl)methanone]",0.319
11,"OCC1(c2ccc(-c3cnc4c(c3Cl)C3(CC=CC3)CN4)cc2)CC1 [Compound 204, (1-(4-(4′-Chloro-1′,2′-dihydrospiro[cyclopentane-1,3′-pyrrolo[2,3-b]pyridin]-3-en-5′-yl)phenyl)cyclopropyl)methanol]",0.285
12,"CN(C)C(=O)c1c(N)ccc(-c2cnc3c(c2Cl)[C@]2(CC[C@H](C(=O)O)C2)CN3)c1F (single isomer, unassigned) [Compound 105a]",0.00985
13,"CCS(=O)(=O)c1cccc(-c2cnc3c(c2Cl)C2(CC=CC2)CN3)c1 [Compound 184, 4′-Chloro-5′-(3-(ethylsulfonyl)phenyl)-1′,2′-dihydrospiro[cyclopentane-1,3′-pyrrolo[2,3-b]pyridin]-3-ene]",0.0503
14,CN(C)C(=O)c1c(N)ccc(-c2cnc3c(c2)[C@]2(CN3)C[C@@](O)(C(F)(F)F)C2)c1F [Compound 87a],0.358
15,"NC(=O)Cn1cc(-c2cnc3c(c2Cl)C2(CC=CC2)CN3)cn1 [Compound 318, 2-(4-(4′-Chloro-1′,2′-dihydrospiro[cyclopentane-1,3′-pyrrolo[2,3-b]pyridin]-3-en-5′-yl)-1H-pyrazol-1-yl)acetamide]",0.236
16,"Cc1c(-c2ccc(N)c(C(=O)N(C)C)c2F)cnc2c1C1(CCCCC1)CN2 [Compound 233, 6-Amino-2-fluoro-N,N-dimethyl-3-(4′-methyl-1′,2′-dihydrospiro[cyclohexane-1,3′-pyrrolo[2,3-b]pyridin]-5′-yl)benzamide]",0.0261
17,"CN(C)C(=O)c1cccc(-c2cnc3c(c2Cl)C2(CC=CC2)CN3)c1F [Compound 227, 3-(4′-Chloro-1′,2′-dihydrospiro[cyclopentane-1,3′-pyrrolo[2,3-b]pyridin]-3-en-5′-yl)-2-fluoro-N,N-dimethylbenzamide]",0.0112
18,"Nc1cc(-c2cnc3c(c2)C2(CC2)CN3)nc(N2CCCOC2=O)c1 [Compound 293, 3-(4-amino-6-(1′,2′-dihydrospiro[cyclopropane-1,3′-pyrrolo[2,3-b]pyridin]-5′-yl)pyridin-2-yl)-1,3-oxazinan-2-one]",0.0474
19,"CN(C)C(=O)c1c(N)ccc(-c2cnc3c(c2Cl)C2(CCC(=CS(C)(=O)=O)C2)CN3)c1F (stereo not shown) [Compound 103, 6-Amino-3-(4′-chloro-3-((methylsulfonyl)methylene)-1′,2′-dihydrospiro[cyclopentane-1,3′-pyrrolo[2,3-b]pyridin]-5′-yl)-2-fluoro-N,N-dimethylbenzamide]",0.0241
20,"O=C1CCCCN1c1cccc2c(-c3cnc4c(c3Cl)C3(CCC(O)C3)CN4)c[nH]c12 (stereo not shown) [Compound 300, 1-(3-(4′-Chloro-3-hydroxy-1′,2′-dihydrospiro[cyclopentane-1,3′-pyrrolo[2,3-b]pyridin]-5′-yl)-1H-indol-7-yl)piperidin-2-one]",0.0506

# The remaining lines, values ahead:
row,Ki [µM],SMILES
1,0.042,"Cn1cc(C2CCCCN2C(=O)c2cccc(-c3cnc4c(c3)[C@]3(CC[C@H](O)CC3)CN4)c2F)cn1 (stereo partly drawn) [Compound 245a, (2-Fluoro-3-((1s,4s)-4-hydroxy-1′,2′-dihydrospiro[cyclohexane-1,3′-pyrrolo[2,3-b]pyridin]-5′-yl)phenyl)((R)-2-(1-methyl-1H-pyrazol-4-yl)piperidin-1-yl)methanone]"
2,0.479,"CN(C)C(=O)c1c(N)ccc(-c2cnc3c(c2Cl)[C@]2(CC[C@H](N4CCOCC4)C2)CN3)c1F (relative stereo) [Compound 120a, 6-Amino-3-((1R,3S)-4′-chloro-3-morpholino-1′,2′-dihydrospiro[cyclopentane-1,3′-pyrrolo[2,3-b]pyridin]-5′-yl)-2-fluoro-N,N-dimethylbenzamide]"
3,0.00435,"CC[C@]1(C#N)CC[C@@]2(CNc3ncc(-c4ccc(N)c(C(=O)N(C)C)c4F)c(Cl)c32)C1 (relative stereo) [Compound 152a, 6-Amino-3-((1R,3S)-4′-chloro-3-cyano-3-ethyl-1′,2′-dihydrospiro[cyclopentane-1,3′-pyrrolo[2,3-b]pyridin]-5′-yl)-2-fluoro-N,N-dimethylbenzamide]"
4,0.0234,"CCC[C@H]1C[C@]12CNc1ncc(-c3ccc(N)c(C(=O)N(C)C)c3F)cc12 (single isomer, unassigned) [Compound 217d]"
5,0.0746,"CN(C)C(=O)c1c(N)ccc(-c2cnc3c(c2Cl)[C@@]2(CN3)C[C@H](O)[C@@H](n3ccnn3)C2)c1F (single isomer, unassigned) [Compound 146c]"
6,0.165,"CN(C)C(=O)c1c(N)ccc(-c2cnc3c(c2Cl)[C@]2(CC[C@H](CN)C2)CN3)c1F (relative stereo) [Compound 127a, 6-Amino-3-((1R,3S)-3-(aminomethyl)-4′-chloro-1′,2′-dihydrospiro[cyclopentane-1,3′-pyrrolo[2,3-b]pyridin]-5′-yl)-2-fluoro-N,N-dimethylbenzamide]"
7,0.163,"Cc1nccn1[C@H]1CC[C@@]2(CNc3ncc(-c4ccc(N)c(C(=O)N(C)C)c4F)c(Cl)c32)C1 (relative stereo) [Compound 167a, 6-Amino-3-((1R,3S)-4′-chloro-3-(2-methyl-1H-imidazol-1-yl)-1′,2′-dihydrospiro[cyclopentane-1,3′-pyrrolo[2,3-b]pyridin]-5′-yl)-2-fluoro-N,N-dimethylbenzamide]"
8,0.0439,"CN1CCN(c2cccc3c(-c4cnc5c(c4Cl)[C@]4(CC[C@H](C(N)=O)C4)CN5)c[nH]c23)C(=O)C1 (relative stereo) [Compound 304a, (1R,3S)-4′-Chloro-5′-(7-(4-methyl-2-oxopiperazin-1-yl)-1H-indol-3-yl)-1′,2′-dihydrospiro[cyclopentane-1,3′-pyrrolo[2,3-b]pyridine]-3-carboxamide]"
9,0.0565,"Cc1ccnn1[C@H]1CC[C@@]2(CNc3ncc(-c4ccc(N)c(C(=O)N(C)C)c4F)c(Cl)c32)C1 [Compound 160a, 6-Amino-3-((1R,3S)-4′-chloro-3-(5-methyl-1H-pyrazol-1-yl)-1′,2′-dihydrospiro[cyclopentane-1,3′-pyrrolo[2,3-b]pyridin]-5′-yl)-2-fluoro-N,N-dimethylbenzamide]"
10,0.00513,"CCC[C@H]1C[C@@]12CNc1ncc(-c3ccc(N)c(C(=O)N(C)C)c3F)c(Cl)c12 (single isomer, unassigned) [Compound 197a]"
11,0.316,"Cn1cc(C2CCCCN2C(=O)c2cccc(-c3cnc4c(c3Cl)[C@]3(CC[C@H](O)CC3)CN4)c2F)cn1 (single isomer, unassigned) [Compound 246b]"
12,0.0142,"N#C[C@H]1CCCN1C(=O)c1cccc(-c2cnc3c(c2)C2(CC2)CN3)c1F [Compound 154a, (R)-1-(3-(1′,2′-dihydrospiro[cyclopropane-1,3′-pyrrolo[2,3-b]pyridin]-5′-yl)-2-fluorobenzoyl)pyrrolidine-2-carbonitrile]"
13,0.0848,"CN(C)C(=O)c1c(N)ccc(-c2cnc3c(c2Cl)[C@@]2(CC[C@@](C)(C(N)=O)C2)CN3)c1F (single isomer, unassigned) [Compound 155b]"
14,0.012,"CN(C)C(=O)c1c(N)ccc(-c2cnc3c(c2Cl)[C@]2(CC[C@@H](C(C)(C)O)CC2)CN3)c1F [Compound 255b, 6-Amino-3-((1r,4r)-4′-chloro-4-(2-hydroxypropan-2-yl)-1′,2′-dihydrospiro[cyclohexane-1,3′-pyrrolo[2,3-b]pyridin]-5′-yl)-2-fluoro-N,N-dimethylbenzamide]"
